Laboratory results as given in paper PMC9386913 (Arthritis Research & Therapy, 2022).
Marks after values point to notes of the source that are not given here.

Assay: Phase I multiple ascending-dose study: safety and tolerability (treatment-emergent adverse events)
Type: in vivo, human (healthy volunteers)
Procedure: A single-center, randomized, double-blind, placebo-controlled phase I study (NCT03554993) with a MAD component was performed in the UK between May 2018 and July 2019. Thirty-seven healthy volunteers of any race, ethnicity, or sex were enrolled. The inclusion criteria were 18 to 55 years of age inclusive, body mass index 18 to 33 kg/m^2, and physical examination by the investigator without clinically significant findings. Subjects were excluded if any clinically significant medical history, laboratory abnormality, psychiatric illness, or other condition existed that would place the subject at unacceptable risk by participating in the study. Pregnancy prevention guidance was provided as per Clinical Trial Facilitation Group recommendations. Subjects were randomly assigned to daily oral doses of CC-99677 or placebo. Subjects were dosed daily for 14 days. […] Both the investigator and subjects were blinded to the treatment arm. Safety assessments, including physical examinations, clinical laboratory tests, and collection of adverse events (AEs) were performed and graded using MedDRA version 22.0 and the US Food and Drug Administration (FDA) Toxicity Grading Scale for Healthy Adult and Adolescent Volunteers. The primary outcome of this trial was the safety and tolerability of multiple daily doses of CC-99677.

## CCOCc1cnc(Cl)nc1Oc1ccc2c(ccc3sc4c(c32)NC[C@@H](C)NC4=O)n1 [CC-99677]
10 mg daily, 14 days (n = 5)
  Subjects with ≥ 1 treatment-emergent AE: 3 (60.0) n (%)
  TEAE: Abdominal pain: 0 n (%)
  TEAE: Alanine aminotransferase increased: 0 n (%)
  TEAE: Aspartate aminotransferase increased: 0 n (%)
  TEAE: Back pain: 0 n (%)
  TEAE: Blood creatine phosphokinase increased: 0 n (%)
  TEAE: Catheter site related reaction: 0 n (%)
  TEAE: Chapped lips: 0 n (%)
  TEAE: Constipation: 0 n (%)
  TEAE: Diarrhea: 0 n (%)
  TEAE: Dizziness: 1 (20.0) n (%)
  TEAE: Dysmenorrhea: 0 n (%)
  TEAE: Dyspepsia: 1 (20.0) n (%)
  TEAE: Ear and labyrinth disorders: 1 (20.0) n (%)
  TEAE: Ear pain: 1 (20.0) n (%)
  TEAE: Flushing: 0 n (%)
  TEAE: Gastrointestinal disorders: 2 (40.0) n (%)
  TEAE: General disorders and administration site conditions: 2 (40.0) n (%)
  TEAE: Headache: 2 (40.0) n (%)
  TEAE: Hot flush: 0 n (%)
  TEAE: Infections and infestations: 1 (20.0) n (%)
  TEAE: Injury, poisoning, and procedural complications: 1 (20.0) n (%)
  TEAE: Insomnia: 1 (20.0) n (%)
  TEAE: Investigations: 0 n (%)
  TEAE: Muscle strain: 1 (20.0) n (%)
  TEAE: Musculoskeletal and connective tissue disorders: 0 n (%)
  TEAE: Musculoskeletal pain: 0 n (%)
  TEAE: Myalgia: 0 n (%)
  TEAE: Nasopharyngitis: 0 n (%)
  TEAE: Nausea: 2 (40.0) n (%)
  TEAE: Nervous system disorders: 2 (40.0) n (%)
  TEAE: Oropharyngeal pain: 1 (20.0) n (%)
  TEAE: Psychiatric disorders: 1 (20.0) n (%)
  TEAE: Rash pustular: 1 (20.0) n (%)
  TEAE: Rectal hemorrhage: 0 n (%)
  TEAE: Reproductive system and breast disorders: 0 n (%)
  TEAE: Respiratory, thoracic, and mediastinal disorders: 1 (20.0) n (%)
  TEAE: Sensation of foreign body: 1 (20.0) n (%)
  TEAE: Vascular disorders: 0 n (%)
  TEAE: Vessel puncture site pain: 1 (20.0) n (%)
  TEAE: Vessel puncture site reaction: 0 n (%)
30 mg daily, 14 days (n = 6)
  Subjects with ≥ 1 treatment-emergent AE: 4 (66.7) n (%)
  TEAE: Abdominal pain: 0 n (%)
  TEAE: Alanine aminotransferase increased: 0 n (%)
  TEAE: Aspartate aminotransferase increased: 0 n (%)
  TEAE: Back pain: 0 n (%)
  TEAE: Blood creatine phosphokinase increased: 0 n (%)
  TEAE: Catheter site related reaction: 0 n (%)
  TEAE: Chapped lips: 1 (16.7) n (%)
  TEAE: Constipation: 0 n (%)
  TEAE: Diarrhea: 0 n (%)
  TEAE: Dizziness: 1 (16.7) n (%)
  TEAE: Dysmenorrhea: 0 n (%)
  TEAE: Dyspepsia: 0 n (%)
  TEAE: Ear and labyrinth disorders: 0 n (%)
  TEAE: Ear pain: 0 n (%)
  TEAE: Flushing: 0 n (%)
  TEAE: Gastrointestinal disorders: 2 (33.3) n (%)
  TEAE: General disorders and administration site conditions: 0 n (%)
  TEAE: Headache: 0 n (%)
  TEAE: Hot flush: 0 n (%)
  TEAE: Infections and infestations: 1 (16.7) n (%)
  TEAE: Injury, poisoning, and procedural complications: 0 n (%)
  TEAE: Insomnia: 0 n (%)
  TEAE: Investigations: 0 n (%)
  TEAE: Muscle strain: 0 n (%)
  TEAE: Musculoskeletal and connective tissue disorders: 2 (33.3) n (%)
  TEAE: Musculoskeletal pain: 0 n (%)
  TEAE: Myalgia: 2 (33.3) n (%)
  TEAE: Nasopharyngitis: 1 (16.7) n (%)
  TEAE: Nausea: 0 n (%)
  TEAE: Nervous system disorders: 1 (16.7) n (%)
  TEAE: Oropharyngeal pain: 0 n (%)
  TEAE: Psychiatric disorders: 0 n (%)
  TEAE: Rash pustular: 0 n (%)
  TEAE: Rectal hemorrhage: 1 (16.7) n (%)
  TEAE: Reproductive system and breast disorders: 0 n (%)
  TEAE: Respiratory, thoracic, and mediastinal disorders: 0 n (%)
  TEAE: Sensation of foreign body: 0 n (%)
  TEAE: Vascular disorders: 0 n (%)
  TEAE: Vessel puncture site pain: 0 n (%)
  TEAE: Vessel puncture site reaction: 0 n (%)
60 mg daily, 14 days (n = 6)
  Subjects with ≥ 1 treatment-emergent AE: 1 (16.7) n (%)
  TEAE: Abdominal pain: 0 n (%)
  TEAE: Alanine aminotransferase increased: 0 n (%)
  TEAE: Aspartate aminotransferase increased: 0 n (%)
  TEAE: Back pain: 0 n (%)
  TEAE: Blood creatine phosphokinase increased: 0 n (%)
  TEAE: Catheter site related reaction: 0 n (%)
  TEAE: Chapped lips: 0 n (%)
  TEAE: Constipation: 0 n (%)
  TEAE: Diarrhea: 0 n (%)
  TEAE: Dizziness: 0 n (%)
  TEAE: Dysmenorrhea: 0 n (%)
  TEAE: Dyspepsia: 0 n (%)
  TEAE: Ear and labyrinth disorders: 0 n (%)
  TEAE: Ear pain: 0 n (%)
  TEAE: Flushing: 0 n (%)
  TEAE: Gastrointestinal disorders: 0 n (%)
  TEAE: General disorders and administration site conditions: 0 n (%)
  TEAE: Headache: 1 (16.7) n (%)
  TEAE: Hot flush: 0 n (%)
  TEAE: Infections and infestations: 0 n (%)
  TEAE: Injury, poisoning, and procedural complications: 0 n (%)
  TEAE: Insomnia: 0 n (%)
  TEAE: Investigations: 0 n (%)
  TEAE: Muscle strain: 0 n (%)
  TEAE: Musculoskeletal and connective tissue disorders: 0 n (%)
  TEAE: Musculoskeletal pain: 0 n (%)
  TEAE: Myalgia: 0 n (%)
  TEAE: Nasopharyngitis: 0 n (%)
  TEAE: Nausea: 0 n (%)
  TEAE: Nervous system disorders: 1 (16.7) n (%)
  TEAE: Oropharyngeal pain: 0 n (%)
  TEAE: Psychiatric disorders: 0 n (%)
  TEAE: Rash pustular: 0 n (%)
  TEAE: Rectal hemorrhage: 0 n (%)
  TEAE: Reproductive system and breast disorders: 0 n (%)
  TEAE: Respiratory, thoracic, and mediastinal disorders: 0 n (%)
  TEAE: Sensation of foreign body: 0 n (%)
  TEAE: Vascular disorders: 0 n (%)
  TEAE: Vessel puncture site pain: 0 n (%)
  TEAE: Vessel puncture site reaction: 0 n (%)
120 mg daily, 14 days (n = 6)
  Subjects with ≥ 1 treatment-emergent AE: 3 (50.0) n (%)
  TEAE: Abdominal pain: 1 (16.7) n (%)
  TEAE: Alanine aminotransferase increased: 1 (16.7) n (%)
  TEAE: Aspartate aminotransferase increased: 0 n (%)
  TEAE: Back pain: 0 n (%)
  TEAE: Blood creatine phosphokinase increased: 0 n (%)
  TEAE: Catheter site related reaction: 0 n (%)
  TEAE: Chapped lips: 0 n (%)
  TEAE: Constipation: 0 n (%)
  TEAE: Diarrhea: 1 (16.7) n (%)
  TEAE: Dizziness: 0 n (%)
  TEAE: Dysmenorrhea: 0 n (%)
  TEAE: Dyspepsia: 0 n (%)
  TEAE: Ear and labyrinth disorders: 0 n (%)
  TEAE: Ear pain: 0 n (%)
  TEAE: Flushing: 0 n (%)
  TEAE: Gastrointestinal disorders: 1 (16.7) n (%)
  TEAE: General disorders and administration site conditions: 0 n (%)
  TEAE: Headache: 1 (16.7) n (%)
  TEAE: Hot flush: 0 n (%)
  TEAE: Infections and infestations: 0 n (%)
  TEAE: Injury, poisoning, and procedural complications: 0 n (%)
  TEAE: Insomnia: 0 n (%)
  TEAE: Investigations: 1 (16.7) n (%)
  TEAE: Muscle strain: 0 n (%)
  TEAE: Musculoskeletal and connective tissue disorders: 1 (16.7) n (%)
  TEAE: Musculoskeletal pain: 1 (16.7) n (%)
  TEAE: Myalgia: 0 n (%)
  TEAE: Nasopharyngitis: 0 n (%)
  TEAE: Nausea: 0 n (%)
  TEAE: Nervous system disorders: 1 (16.7) n (%)
  TEAE: Oropharyngeal pain: 1 (16.7) n (%)
  TEAE: Psychiatric disorders: 0 n (%)
  TEAE: Rash pustular: 0 n (%)
  TEAE: Rectal hemorrhage: 0 n (%)
  TEAE: Reproductive system and breast disorders: 0 n (%)
  TEAE: Respiratory, thoracic, and mediastinal disorders: 1 (16.7) n (%)
  TEAE: Sensation of foreign body: 0 n (%)
  TEAE: Vascular disorders: 0 n (%)
  TEAE: Vessel puncture site pain: 0 n (%)
  TEAE: Vessel puncture site reaction: 0 n (%)
150 mg daily, 14 days (n = 5)
  Subjects with ≥ 1 treatment-emergent AE: 2 (40.0) n (%)
  TEAE: Abdominal pain: 0 n (%)
  TEAE: Alanine aminotransferase increased: 0 n (%)
  TEAE: Back pain: 0 n (%)
  TEAE: Catheter site related reaction: 0 n (%)
  TEAE: Chapped lips: 0 n (%)
  TEAE: Constipation: 0 n (%)
  TEAE: Diarrhea: 0 n (%)
  TEAE: Dizziness: 0 n (%)
  TEAE: Dysmenorrhea: 1 (20.0) n (%)
  TEAE: Dyspepsia: 0 n (%)
  TEAE: Ear and labyrinth disorders: 0 n (%)
  TEAE: Ear pain: 0 n (%)
  TEAE: Flushing: 1 (20.0) n (%)
  TEAE: Gastrointestinal disorders: 0 n (%)
  TEAE: General disorders and administration site conditions: 0 n (%)
  TEAE: Headache: 0 n (%)
  TEAE: Hot flush: 0 n (%)
  TEAE: Infections and infestations: 0 n (%)
  TEAE: Injury, poisoning, and procedural complications: 0 n (%)
  TEAE: Insomnia: 0 n (%)
  TEAE: Investigations: 1 (20.0) n (%)
  TEAE: Muscle strain: 0 n (%)
  TEAE: Musculoskeletal and connective tissue disorders: 0 n (%)
  TEAE: Musculoskeletal pain: 0 n (%)
  TEAE: Myalgia: 0 n (%)
  TEAE: Nasopharyngitis: 0 n (%)
  TEAE: Nausea: 0 n (%)
  TEAE: Nervous system disorders: 0 n (%)
  TEAE: Oropharyngeal pain: 0 n (%)
  TEAE: Psychiatric disorders: 0 n (%)
  TEAE: Rash pustular: 0 n (%)
  TEAE: Rectal hemorrhage: 0 n (%)
  TEAE: Reproductive system and breast disorders: 1 (20.0) n (%)
  TEAE: Respiratory, thoracic, and mediastinal disorders: 0 n (%)
  TEAE: Sensation of foreign body: 0 n (%)
  TEAE: Vascular disorders: 1 (20.0) n (%)
  TEAE: Vessel puncture site pain: 0 n (%)
  TEAE: Vessel puncture site reaction: 0 n (%)
150 mg daily, 14 days (n = 5), occurred 14 days after the end of dosing following greater-than-usual physical activity, same individual as AST increase
  TEAE: Blood creatine phosphokinase increased: 1 (20.0)^a n (%)
150 mg daily, 14 days (n = 5), occurred 14 days after the end of dosing following greater-than-usual physical activity, same individual as CPK increase
  TEAE: Aspartate aminotransferase increased: 1 (20.0)^a n (%)
10 to 150 mg
  Dose dependency of the incidence of TEAEs: no apparent CC-99677 dose dependency
14 consecutive days of dosing, 5 dose-level cohorts 10 to 150 mg
  Serious treatment-emergent adverse events: no serious treatment-emergent adverse events (TEAEs) were observed
MAD study
  AEs not suspected to be related to CC-99677 (blinded investigator assessment): 69%
  Discontinuation because of safety reasons: No subject discontinued
MAD study, 10 to 150 mg daily, 14 days
  Severity grade of TEAEs (FDA toxicity grading scale): mild (grade 1)
All subjects receiving CC-99677 (n = 28), placebo 77.8%
  Subjects with TEAEs: 46.4%
